From patent US12673039B2, “Methods of inducing autophagy using coumarin derivatives and related compounds” (Buck Institute for Research on Aging, priority 2019, dated 2026)

Tested on: NL5901, CL2006 and CL4176 worms
Test: Motor function (thrashing, paralysis) in worms expressing human α-synuclein or Aβ in muscles
Assay type: in vivo, C. elegans
Conditions: NL5901, human α-synuclein within muscles
Text: FIG. 21, panels A-F: AIC106 prevents neuronal loss and proteotoxicity in strains expressing human neurotoxic proteins. Panel A) Dopaminergic neuronal loss in day-5 UA44 worms was quantified by scoring percentage of worms with intact 4-CEP neurons in AIC106 and DMSO-control treatment. [N=3 independent experiments (mean±SD). ***p<0.001, by one-way ANOVA with Tukey's multiple comparisons test]. Motor function in (panel B) day-7 NL5901 and (panel C) day-5 CL2006 worms were quantified by scoring number of thrashes for an individual worm over the period of 30 seconds (dots) in AIC106 and DMSO-control treatment. […] Panel D) Motor function in temperature sensitive (enhanced paralysis at 25° C.) CL4176 worms was determined by scoring percent of worms paralyzed in AIC106 and DMSO-control treatment. […] P-value calculated by Logrank test]. Panel F) Effect of AIC106 on polyQ40 aggregation was determined by scoring number of polyQ40-YFP fluorescent puncta in an individual AM141 worm treated with AIC106 and DMSO-control. […]
FIG. 22, panels A-H: AIC106-induced HLH-30 expression is mediated by the nuclear hormone receptor DAF-12. […] Panel B) Relative fold change in mRNA of hlh-30 compared to DMSO-control was quantified using qRT-PCR in young adult wild-type N2 and daf-12(rh61rh411) worms post-24 hours treatment with AIC106. […]

Compound	motor function (thrashing rate)
O=c1oc2c3c4c(cc2c2c1CCC2)CCCN4CCC3 [C1, 2,3,6,7,10,11-Hexahydro-1H,5H-cyclopenta(3,4)(1)benzopyrano(6,7,8-ij)quinolizin-12(9H)-one]	improved motor function
Cc1cccc(C)c1OCc1cc(C(=O)N2CCC(c3ccncc3)CC2)no1 [DFA, dafadine-A, reference compound]	improved motor function
